Among the data in PMC4892435, “Structure of astrotactin-2: a conserved vertebrate-specific and perforin-like membrane protein involved in neuronal development” (Open Biology, 2016) are Kd values, retold here.

In the experiment the target is T1, ASTN-2_701-1288 (Homo sapiens, UniProt O75129).
T1 construct: gene ASTN2; endodomain, residues 701-1288 in methods (crystal construct EGF-3 to C-terminus is printed 649-1288; borders may mix numberings); secreted from HEK293T, hexahistidine
T1 sequence (O75129 701-1288 isoform O75129-2): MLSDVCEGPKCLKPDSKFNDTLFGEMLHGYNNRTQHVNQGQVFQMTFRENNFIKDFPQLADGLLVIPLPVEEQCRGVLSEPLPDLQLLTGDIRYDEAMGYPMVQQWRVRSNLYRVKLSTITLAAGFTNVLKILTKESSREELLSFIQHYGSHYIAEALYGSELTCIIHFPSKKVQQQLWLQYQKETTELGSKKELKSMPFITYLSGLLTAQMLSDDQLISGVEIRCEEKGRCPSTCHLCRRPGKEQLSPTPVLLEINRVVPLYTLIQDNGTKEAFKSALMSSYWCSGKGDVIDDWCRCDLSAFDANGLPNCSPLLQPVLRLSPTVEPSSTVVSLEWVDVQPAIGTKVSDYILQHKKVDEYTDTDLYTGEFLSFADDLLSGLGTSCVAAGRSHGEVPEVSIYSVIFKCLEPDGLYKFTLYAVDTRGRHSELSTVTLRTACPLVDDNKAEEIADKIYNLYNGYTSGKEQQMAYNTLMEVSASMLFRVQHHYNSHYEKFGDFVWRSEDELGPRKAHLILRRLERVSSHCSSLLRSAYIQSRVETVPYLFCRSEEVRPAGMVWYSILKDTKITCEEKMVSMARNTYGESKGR
The experiment in a line: SPR, Biacore T200, immobilised biotinylated ligand. The experiment is classed as binding. Particulars: pH 7.5, 20 °C, 150 mM NaCl; labelled compound (biotin, immobilised); one Kd printed jointly for PIP3 and PIP2; construct of this run not stated. (SPR reads the build-up and loss of mass on a sensor chip optically.)

As a reminder, the Kd is the free concentration of one partner at which half of the binding sites on the other are occupied at equilibrium, for simple one-to-one binding. The substance PtdIns(4,5)P2 (C-45B6a) showed a Kd of 30 µM. In turn, PtdIns(3,4,5)P3 (C-39B6a) had a Kd of 30 µM.
